ChEMBL document CHEMBL1201862, “PubChem BioAssay data set” (2004)
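Method: 48-hour compound exposure of cells in 96-well plates, five concentrations, linear interpolation of endpoints. GI50 = concentration required for 50% inhibition of growth.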 The source made the active and inactive calls. Cut-off read from the data, not from the text of the source: active = GI50 up to about 1.1 µM and inactive = higher.

How the values were obtained:
Assay in all cases: NCI-60 cell line screen, 48 h
HCC 2998 = tested on: HCC 2998
SK-OV-3 = tested on: SK-OV-3
EKVX = tested on: EKVX
T47D = tested on: T47D
HT-29 = tested on: HT-29
OVCAR-8 = tested on: OVCAR-8
SK-MEL-5 = tested on: SK-MEL-5
A549 = tested on: A549
KM12 = tested on: KM12
COLO 205 = tested on: COLO 205
NCI-H522 = tested on: NCI-H522
SK-MEL-28 = tested on: SK-MEL-28
UACC-62 = tested on: UACC-62
RPMI-8226 = tested on: RPMI-8226
IGROV-1 = tested on: IGROV-1
UACC-257 = tested on: UACC-257
U-251 = tested on: U-251
NCI-H226 = tested on: NCI-H226
SF-539 = tested on: SF-539
OVCAR-5 = tested on: OVCAR-5

SMILES	GI50 (HCC 2998)	GI50 (SK-OV-3)	GI50 (EKVX)	GI50 (T47D)	GI50 (HT-29)	GI50 (OVCAR-8)	GI50 (SK-MEL-5)	GI50 (A549)	GI50 (KM12)	GI50 (COLO 205)	GI50 (NCI-H522)	GI50 (SK-MEL-28)	GI50 (UACC-62)	GI50 (RPMI-8226)	GI50 (IGROV-1)	GI50 (UACC-257)	GI50 (U-251)	GI50 (NCI-H226)	GI50 (SF-539)	GI50 (OVCAR-5)
O=C1C(=C(C(=O)c2ccccc2)C(=O)c2ccccc2)OC(c2ccccc2)=C1C(=O)c1ccccc1	9.77 µM (inactive)	6.93 µM (inactive)	8.28 µM (inactive)	12 µM (inactive)	11.7 µM (inactive)	4.15 µM (inactive)	7.14 µM (inactive)	9.04 µM (inactive)	5.5 µM (inactive)	12.8 µM (inactive)	1.22 µM (inactive)	13.9 µM (inactive)	4.33 µM (inactive)	5.56 µM (inactive)	0.164 µM (active)	17.1 µM (inactive)	4.46 µM (inactive)	3.74 µM (inactive)	5.78 µM (inactive)	16.9 µM (inactive)
CC(=O)O[C@H]1/C(=C/c2ccncc2)C[C@H]2[C@@H]3CC=C4C[C@@H](N5CCCC5)CC[C@]4(C)[C@H]3CC[C@]12C	12.2 µM (inactive)	17.9 µM (inactive)	13.9 µM (inactive)	13.4 µM (inactive)	1.49 µM (inactive)	14 µM (inactive)	8.53 µM (inactive)	11.8 µM (inactive)	11.9 µM (inactive)	11.4 µM (inactive)	15.2 µM (inactive)	12.7 µM (inactive)	14.2 µM (inactive)	6.1 µM (inactive)	12.6 µM (inactive)	2.34 µM (inactive)	11.5 µM (inactive)	19.3 µM (inactive)	18.6 µM (inactive)	13.2 µM (inactive)
O=c1oc2ccccc2cc1-c1csc(Nc2ccc(F)cc2)n1	5.48 µM (inactive)	5.77 µM (inactive)	1.97 µM (inactive)	2.3 µM (inactive)	3.43 µM (inactive)	2.77 µM (inactive)	10.4 µM (inactive)	1.67 µM (inactive)	5.5 µM (inactive)	4.47 µM (inactive)	1.91 µM (inactive)	0.382 µM (active)	12.6 µM (inactive)	0.216 µM (active)	4.99 µM (inactive)	14.8 µM (inactive)	2.83 µM (inactive)	3.1 µM (inactive)	1.91 µM (inactive)	8.38 µM (inactive)
